± gives the expanded uncertainty stated by the source.
Test: xn = mol fraction of the nth substance listed
Details: 101 kPa, Liquid, Vibrating tube method

NCCN [ethane-1,2-diamine] + O
mass density [kg/m3]
Details	288.15 K	293.15 K	298.15 K	303.15 K	308.15 K	313.15 K	318.15 K
x2 = 0.0401	905.79 ± 0.45	901.13 ± 0.45	896.45 ± 0.45	891.76 ± 0.44	887.06 ± 0.44	882.34 ± 0.44	877.6 ± 0.44
x2 = 0.0797	909.79 ± 0.43	905.15 ± 0.43	900.49 ± 0.43	895.82 ± 0.43	891.14 ± 0.43	886.43 ± 0.43	881.71 ± 0.42
x2 = 0.1199	914.18 ± 0.42	909.56 ± 0.42	904.92 ± 0.41	900.27 ± 0.41	895.6 ± 0.41	890.91 ± 0.41	886.2 ± 0.41
x2 = 0.1598	918.88 ± 0.4	914.28 ± 0.4	909.66 ± 0.4	905.03 ± 0.4	900.38 ± 0.4	895.71 ± 0.39	891.01 ± 0.39
x2 = 0.2003	923.88 ± 0.38	919.29 ± 0.38	914.69 ± 0.38	910.07 ± 0.38	905.43 ± 0.38	900.77 ± 0.38	896.09 ± 0.38
x2 = 0.25	930.08 ± 0.36	925.52 ± 0.36	920.93 ± 0.36	916.33 ± 0.36	911.71 ± 0.36	907.07 ± 0.36	902.4 ± 0.36
x2 = 0.2999	936.78 ± 0.34	932.23 ± 0.34	927.67 ± 0.34	923.08 ± 0.34	918.47 ± 0.34	913.84 ± 0.34	909.18 ± 0.34
x2 = 0.3497	944.11 ± 0.32	939.57 ± 0.32	935.02 ± 0.32	930.44 ± 0.32	925.84 ± 0.32	921.21 ± 0.32	916.56 ± 0.32
x2 = 0.3998	951.74 ± 0.31	947.2 ± 0.3	942.65 ± 0.3	938.08 ± 0.3	933.48 ± 0.3	928.86 ± 0.3	924.21 ± 0.3
x2 = 0.4504	959.71 ± 0.29	955.18 ± 0.29	950.64 ± 0.29	946.07 ± 0.28	941.48 ± 0.28	936.86 ± 0.28	932.22 ± 0.28
x2 = 0.5001	967.93 ± 0.27	963.41 ± 0.27	958.87 ± 0.27	954.3 ± 0.27	949.72 ± 0.27	945.1 ± 0.27	940.46 ± 0.27
x2 = 0.5499	976.43 ± 0.24	971.92 ± 0.24	967.39 ± 0.24	962.83 ± 0.24	958.26 ± 0.24	953.66 ± 0.24	949.04 ± 0.24
x2 = 0.5998	984.56 ± 0.22	980.1 ± 0.22	975.61 ± 0.22	971.09 ± 0.22	966.55 ± 0.22	961.99 ± 0.22	957.4 ± 0.22
x2 = 0.6499	991.92 ± 0.19	987.54 ± 0.19	983.14 ± 0.19	978.72 ± 0.19	974.26 ± 0.19	969.77 ± 0.19	965.25 ± 0.19
x2 = 0.7004	998.03 ± 0.16	993.83 ± 0.17	989.6 ± 0.17	985.34 ± 0.17	981.04 ± 0.17	976.7 ± 0.17	972.33 ± 0.17
x2 = 0.7499	1001.68 ± 0.14	997.76 ± 0.14	993.81 ± 0.14	989.81 ± 0.14	985.76 ± 0.14	981.67 ± 0.14	977.53 ± 0.14
x2 = 0.8	1002.5 ± 0.12	999 ± 0.12	995.45 ± 0.12	991.83 ± 0.12	988.16 ± 0.12	984.43 ± 0.12	980.63 ± 0.12
x2 = 0.84	1001.38 ± 0.1	998.31 ± 0.1	995.17 ± 0.1	991.96 ± 0.1	988.67 ± 0.1	985.31 ± 0.1	981.87 ± 0.1
x2 = 0.88	999.21 ± 0.08	996.66 ± 0.08	994.01 ± 0.08	991.27 ± 0.08	988.42 ± 0.08	985.47 ± 0.08	982.43 ± 0.09
x2 = 0.9193	997.06 ± 0.07	995.08 ± 0.06	992.96 ± 0.07	990.71 ± 0.07	988.32 ± 0.07	985.81 ± 0.07	983.17 ± 0.07
x2 = 0.9599	996.39 ± 0.05	995.01 ± 0.05	993.42 ± 0.05	991.65 ± 0.05	989.7 ± 0.05	987.59 ± 0.06	985.32 ± 0.06
